Measured values: US6737383B1, “Herbicidal oxadiazolidines” (priority 1999, dated 2004)

Assays:
velvetleaf = assay: Test B pre/postemergence velvetleaf; assay type: in vivo, Abutilon theophrasti
Summary of the method: (§1)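 Response is a visual 0-to-10 score relative to untreated plants, where 0 means no effect and 10 means complete control, taken twelve to sixteen days after application. Treatments went onto soil at planting and onto foliage of 1- to 4-leaf plants, using a surfactant-containing non-phytotoxic solvent.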

bamyardgrass = assay: Test B flood test barnyardgrass; assay type: in vivo, Echinochloa crus-galli
Summary of the method: (§2)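 Flood test on plants grown to the 2-leaf stage; treated plants kept in greenhouse twelve to sixteen days, then visually rated against controls on a 0 (no effect) to 10 (complete control) scale.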

blackgrass = assay: Test B pre/postemergence blackgrass; assay type: in vivo, Alopecurus myosuroides
Summary of the method: as §1

purple nutsedge = assay: Test B pre/postemergence purple nutsedge; assay type: in vivo, Cyperus rotundus
Summary of the method: as §1

crabgrass = assay: Test B pre/postemergence crabgrass; assay type: in vivo, Digitaria sanguinalis
Summary of the method: as §1

corn = assay: Test B pre/postemergence corn; assay type: in vivo, Zea mays
Summary of the method: as §1

rape = assay: Test B pre/postemergence rape; assay type: in vivo, Brassica napus
Summary of the method: as §1

wild oat = assay: Test B pre/postemergence wild oat; assay type: in vivo, Avena fatua
Summary of the method: as §1

smallflower flatsedge = assay: Test B flood test smallflower flatsedge; assay type: in vivo, Cyperus difformis
Summary of the method: as §2

soybean = assay: Test B pre/postemergence soybean; assay type: in vivo, Glycine max
Summary of the method: as §1

sugar beet = assay: Test B pre/postemergence sugar beet; assay type: in vivo, Beta vulgaris
Summary of the method: as §1

bedstraw = assay: Test B pre/postemergence bedstraw; assay type: in vivo, Galium aparine
Summary of the method: as §1

pigweed = assay: Test B pre/postemergence pigweed; assay type: in vivo, Amaranthus retroflexus
Summary of the method: as §1

cocklebur = assay: Test B pre/postemergence cocklebur; assay type: in vivo, Xanthium strumarium
Summary of the method: as §1

surinam grass = assay: Test B pre/postemergence surinam grass; assay type: in vivo, Brachiaria decumbens
Summary of the method: as §1

wheat = assay: Test B pre/postemergence wheat; assay type: in vivo, Triticum aestivum
Summary of the method: as §1

[1] = Postemergence, Rate 125 g/ha, scale of 0 to 10 where 0 is no effect and 10 is complete control
[2] = Preemergence, Rate 62 g/ha, scale 0 to 10 (0 no effect, 10 complete control)
[3] = Preemergence, Rate 125 g/ha, 0 is no effect, 10 is complete control
[4] = Preemergence, Rate 250 g/ha, scale 0 to 10, 0 is no effect, 10 is complete control
[5] = Preemergence, Rate 500 g/ha, scale 0 to 10 (0 no effect, 10 complete control)
[6] = Rate 62 g/ha, Postemergence, scale of 0 to 10 where 0 is no effect and 10 is complete control
[7] = Rate 250 g/ha, Postemergence, scale 0 to 10, 0 is no effect, 10 is complete control
[8] = Rate 500 g/ha, Postemergence, scale 0 to 10
[9] = Postemergence (flood test species), Rate 125 g/ha, scale of 0 to 10 where 0 is no effect and 10 is complete control
[10] = Rate 250 g/ha, Postemergence (flood test), scale 0 to 10, 0 is no effect, 10 is complete control

## CCOC(=O)Cn1c(=O)on(C(=O)N(c2ccc(F)cc2)C(C)C)c1=O [Compound 128]
velvetleaf; [1]
  Velvetleaf plant response rating: 0
velvetleaf; [2]
  Velvetleaf plant response rating: 0
velvetleaf; [3]
  Velvetleaf plant response rating (0 to 10 scale): 0
velvetleaf; [4]
  Velvetleaf plant response rating: 0
velvetleaf; [5]
  Velvetleaf plant response rating: 0
velvetleaf; [6]
  Velvetleaf plant response rating: 0
velvetleaf; [7]
  Plant response rating, Velvetleaf: 0
velvetleaf; [8]
  Velvetleaf plant response rating: 0
bamyardgrass; [9]
  Barnyardgrass plant response rating: 0
bamyardgrass; [10]
  Plant response rating, Barnyardgrass: 0
bamyardgrass; Rate 500 g/ha, listed under Postemergence (flood test species), scale 0 to 10, 0 no effect, 10 complete control
  Barnyardgrass plant response rating: 0
blackgrass; [1]
  Blackgrass plant response rating: 0
blackgrass; [2]
  Blackgrass plant response rating: 0
blackgrass; [3]
  Blackgrass plant response rating (0 to 10 scale): 0
blackgrass; [4]
  Blackgrass plant response rating: 0
blackgrass; [5]
  Blackgrass plant response rating: 2
blackgrass; [6]
  Blackgrass plant response rating: 0
blackgrass; [7]
  Plant response rating, Blackgrass: 0
blackgrass; [8]
  Blackgrass plant response rating: 0
Purple nutsedge; [1]
  Nutsedge plant response rating: 0
Purple nutsedge; [2]
  Nutsedge plant response rating: 0
Purple nutsedge; [3]
  Nutsedge plant response rating (0 to 10 scale): 0
Purple nutsedge; [4]
  Nutsedge plant response rating: 0
Purple nutsedge; [5]
  Nutsedge plant response rating: 0
Purple nutsedge; [6]
  Nutsedge plant response rating: 0
Purple nutsedge; [7]
  Plant response rating, Nutsedge: 0
Purple nutsedge; [8]
  Nutsedge plant response rating: 0
crabgrass; [1]
  Crabgrass plant response rating: 0
crabgrass; [2]
  Crabgrass plant response rating: 0
crabgrass; [3]
  Crabgrass plant response rating (0 to 10 scale): 0
crabgrass; [4]
  Crabgrass plant response rating: 0
crabgrass; [5]
  Crabgrass plant response rating: 0
crabgrass; [6]
  Crabgrass plant response rating: 0
crabgrass; [7]
  Plant response rating, Crabgrass: 0
crabgrass; [8]
  Crabgrass plant response rating: 0
corn; [1]
  Corn plant response rating: 0
corn; [2]
  Corn plant response rating: 0
corn; [3]
  Corn plant response rating (0 to 10 scale): 0
corn; [4]
  Corn plant response rating: 0
corn; [5]
  Corn plant response rating: 0
corn; [6]
  Corn plant response rating: 0
corn; [7]
  Plant response rating, Corn: 0
corn; [8]
  Corn plant response rating: 0
rape; [1]
  Rape plant response rating: 0
rape; [2]
  Rape plant response rating: 0
rape; [3]
  Rape plant response rating (0 to 10 scale): 0
rape; [4]
  Rape plant response rating: 0
rape; [5]
  Rape plant response rating: 0
rape; [6]
  Rape plant response rating: 0
rape; [7]
  Plant response rating, Rape: 0
rape; [8]
  Rape plant response rating: 0
Wild oat; [1]
  Wild oats plant response rating: 0
Wild oat; [2]
  Wild oats plant response rating: 0
Wild oat; [3]
  Wild oats plant response rating (0 to 10 scale): 0
Wild oat; [4]
  Wild oats plant response rating: 0
Wild oat; [5]
  Wild oats plant response rating: 0
Wild oat; [6]
  Wild oats plant response rating: 0
Wild oat; [7]
  Plant response rating, Wild oats: 0
Wild oat; [8]
  Wild oats plant response rating: 0
Smallflower flatsedge; [9]
  S. Flatsedge plant response rating: 0
Smallflower flatsedge; [10]
  Plant response rating, S. Flatsedge: 0
Smallflower flatsedge; Rate 500 g/ha, listed under Postemergence (flood test species), scale 0 to 10
  S. Flatsedge plant response rating: 0
soybean; [1]
  Soybean plant response rating: 0
soybean; [2]
  Soybean plant response rating: 0
soybean; [3]
  Soybean plant response rating (0 to 10 scale): 0
soybean; [4]
  Soybean plant response rating: 0
soybean; [5]
  Soybean plant response rating: 0
soybean; [6]
  Soybean plant response rating: 0
soybean; [7]
  Plant response rating, Soybean: 0
soybean; [8]
  Soybean plant response rating: 0
Sugar beet; [1]
  Sugarbeets plant response rating: 0
Sugar beet; [2]
  Sugarbeets plant response rating: 0
Sugar beet; [3]
  Sugarbeets plant response rating (0 to 10 scale): 0
Sugar beet; [4]
  Sugarbeets plant response rating: 0
Sugar beet; [5]
  Sugarbeets plant response rating: 0
Sugar beet; [6]
  Sugarbeets plant response rating: 0
Sugar beet; [7]
  Plant response rating, Sugarbeets: 0
Sugar beet; [8]
  Sugarbeets plant response rating: 0
bedstraw; [1]
  Bedstraw plant response rating: 0
bedstraw; [2]
  Bedstraw plant response rating: 0
bedstraw; [3]
  Bedstraw plant response rating (0 to 10 scale): 0
bedstraw; [4]
  Bedstraw plant response rating: 0
bedstraw; [5]
  Bedstraw plant response rating: 0
bedstraw; [6]
  Bedstraw plant response rating: 0
bedstraw; [7]
  Plant response rating, Bedstraw: 0
bedstraw; Rate 500 g/ha, Postemergence, scale 0 to 10, 0 no effect, 10 complete control
  Bedstraw plant response rating: 0
pigweed; [1]
  Redroot pigweed plant response rating: 0
pigweed; [2]
  Redroot pigweed plant response rating: 0
pigweed; [3]
  Redroot pigweed plant response rating (0 to 10 scale): 0
pigweed; [4]
  Redroot pigweed plant response rating: 0
pigweed; [5]
  Redroot pigweed plant response rating: 0
pigweed; [6]
  Redroot pigweed plant response rating: 0
pigweed; [7]
  Plant response rating, Redroot pigweed: 0
pigweed; [8]
  Redroot pigweed plant response rating: 0
cocklebur; [1]
  Cocklebur plant response rating: 0
cocklebur; [2]
  Cocklebur plant response rating: 0
cocklebur; [3]
  Cocklebur plant response rating (0 to 10 scale): 0
cocklebur; [4]
  Cocklebur plant response rating: 0
cocklebur; [5]
  Cocklebur plant response rating: 0
cocklebur; [6]
  Cocklebur plant response rating: 0
cocklebur; [7]
  Plant response rating, Cocklebur: 0
cocklebur; [8]
  Cocklebur plant response rating: 0
Surinam grass; [1]
  B. signalgrass plant response rating: 0
Surinam grass; [2]
  B. signalgrass plant response rating: 0
Surinam grass; [3]
  B. signalgrass plant response rating (0 to 10 scale): 0
Surinam grass; [4]
  B. signalgrass plant response rating: 0
Surinam grass; [5]
  B. signalgrass plant response rating: 0
Surinam grass; [6]
  B. signalgrass plant response rating: 0
Surinam grass; [7]
  Plant response rating, B. signalgrass: 0
Surinam grass; Rate 500 g/ha, Postemergence, scale of 0 to 10 where 0 is no effect and 10 is complete control
  B. signalgrass plant response rating: 0
wheat; [1]
  Wheat plant response rating: 0
wheat; [2]
  Wheat plant response rating: 0
wheat; [3]
  Wheat plant response rating (0 to 10 scale): 0
wheat; [4]
  Wheat plant response rating: 0
wheat; [5]
  Wheat plant response rating: 0
wheat; [6]
  Wheat plant response rating: 0
wheat; [7]
  Plant response rating, Wheat: 0
wheat; [8]
  Wheat plant response rating: 0
